Results on eight compounds are retold here after patent publication US9346795B2, “Substituted sulfonamides useful as antiapoptotic Bcl inhibitors” (Bristol-Myers Squibb Company, priority 2011, dated 2016).

Test [1] concerns the target Bcl-2 (Homo sapiens (Human), UniProt P10415). Nature of the test: Bcl-2/Bim Fluorescence Polarization Assay (FPA). In kind it is binding. Here is the method: Bcl-2/Bim Fluorescence Polarization Assay (FPA)
The assays were performed in black flat-bottom 384-well plates. […] The reaction was incubated at room temperature for 60 minutes and fluorescence polarization of the reaction was detected on the LJL Plate Reader. Inhibition data were calculated from mP values generated by the no protein control reactions for 100% inhibition and vehicle-only reactions for 0% inhibition. The final concentrations of reagents in the assay were 4.9 nM BCL-2, 5 nM fluoresceinated 18-mer BIM peptide and 1% DMSO. […] Compounds were dissolved at 10 mM in dimethylsulfoxide (DMSO) and evaluated at eleven concentrations. IC50 values were derived by non-linear regression analysis.

Test [2] concerns the target Bcl-xL (Homo sapiens (Human), UniProt Q07817). The test is described as follows: Bcl-xL/Bim Fluorescence Resonance Energy Transfer Assay (FRET). It counts as binding. Here is the method:
Bcl-xL/Bim Fluorescence Resonance Energy Transfer Assay (FRET) The assays were performed in black flat-bottom 384-well plates. The final assay volume was 55 μl prepared from additions of Biotin-Bcl-xL (Bcl-xL: GENBANK® Accession No. […] The reaction was incubated at room temperature for 60 minutes. After 60 minutes, 5 μL of Streptavidin-Terbium FRET detection reagent (Perkin Elmer) was added to the reaction mixture and incubated at room temperature in the dark for 30 mins. […] Compounds were dissolved at 10 mM in dimethylsulfoxide (DMSO) and evaluated at eleven concentrations. IC50 values were derived by non-linear regression analysis.

Chain of Bcl-xL (Q07817 whole entry): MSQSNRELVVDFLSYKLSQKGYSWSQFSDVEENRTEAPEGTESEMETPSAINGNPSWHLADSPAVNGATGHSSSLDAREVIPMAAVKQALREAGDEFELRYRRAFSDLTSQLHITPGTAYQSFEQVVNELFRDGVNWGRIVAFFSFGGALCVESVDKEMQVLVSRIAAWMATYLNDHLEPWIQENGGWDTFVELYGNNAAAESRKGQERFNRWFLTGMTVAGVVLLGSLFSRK
Chain of Bcl-2 (P10415 whole entry): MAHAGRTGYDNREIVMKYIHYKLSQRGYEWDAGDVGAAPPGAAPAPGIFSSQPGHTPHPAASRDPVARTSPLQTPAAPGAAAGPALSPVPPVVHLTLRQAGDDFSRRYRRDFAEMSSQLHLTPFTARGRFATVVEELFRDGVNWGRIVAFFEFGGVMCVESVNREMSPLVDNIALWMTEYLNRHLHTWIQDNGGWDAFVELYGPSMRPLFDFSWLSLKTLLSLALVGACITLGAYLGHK

The term IC50 denotes the concentration needed to halve the response being measured. Regarding `CCCCN(CCCC)C(=O)c1nn(-c2ccc(C(=O)NS(=O)(=O)c3ccc4ccccc4c3)cc2C(=O)N2CCc3ccc(C(=O)O)cc3C2)c(C)c1Cl` [Example 100, 2-(2-(4-Chloro-3-(dibutylcarbamoyl)-5-methyl-1H-pyrazol-1-yl)-5-(naphthalen-2-ylsulfonylcarbamoyl)benzoyl)-1,2,3,4-tetrahydroisoquinoline-7-carboxylic acid], the values for the IC50 in test [1] and in test [2] were 4710 nM and 3510 nM, respectively.
For `CCCCN(CCCC)C(=O)c1nn(-c2ccc(C(=O)NS(=O)(=O)c3ccc4c(c3)CCN4C(=O)C3CCCCC3)cc2C(=O)N2CCc3ccccc3C2)c(C)c1Cl` [Example 55, N,N-dibutyl-4-chloro-1-(4-(1-(cyclohexanecarbonyl)indolin-5-ylsulfonylcarbamoyl)-2-(1,2,3,4-tetrahydroisoquinoline-2-carbonyl)phenyl)-5-methyl-1H-pyrazole-3-carboxamide] the same measures were 250 nM and 230 nM.
Turning to `CCCCN(CCCC)C(=O)c1nn(-c2ccc(C(=O)NS(=O)(=O)c3ccc4c(c3)CCN4Cc3ccc(Cl)c(Cl)c3)cc2C(=O)N2Cc3ccccc3C[C@H]2CO)c(C)c1Cl` [Example 189, N,N-Dibutyl-4-chloro-1-(4-(1-(3,4-dichlorobenzyl)indolin-5-ylsulfonylcarbamoyl)-2-((S)-3-(hydroxymethyl)-1,2,3,4-tetrahydroisoquinoline-2-carbonyl)phenyl)-5-methyl-1H-pyrazole-3-carboxamide], the IC50 came to 10 nM in test [1] and 40 nM in test [2].
On the same counts, the results for `CCCCc1c(-c2ccc(C(=O)NS(=O)(=O)c3ccc4ccccc4c3)cc2C(=O)N2CCc3ccccc3C2)c(CO)nn1-c1ccc(Oc2ccccc2)cc1` [Example 241, 4-(5-butyl-3-(hydroxymethyl)-1-(4-phenoxyphenyl)-1H-pyrazol-4-yl)-N-(naphthalen-2-ylsulfonyl)-3-(1,2,3,4-tetrahydroisoquinoline-2-carbonyl)benzamide] are 130 nM and 30 nM.
For `CCCCN(CCCC)C(=O)c1nn(-c2ccc(C(=O)NS(=O)(=O)c3ccc4c(c3)c(Cl)cn4CC)cc2C(=O)N2CCc3ccccc3C2)c(C)c1Cl` [Example 83, N,N-dibutyl-4-chloro-1-(4-(3-chloro-1-ethyl-1H-indol-5-ylsulfonylcarbamoyl)-2-(1,2,3,4-tetrahydroisoquinoline-2-carbonyl)phenyl)-5-methyl-1H-pyrazole-3-carboxamide] the same measures were 20 nM and 40 nM.
Consider `CCCCN(CCCC)C(=O)c1nn(-c2ccc(C(=O)NS(=O)(=O)c3ccc4c(c3)CCN4C(=O)Cc3ccc(Cl)c(Cl)c3)cc2C(=O)N2CCc3ccccc3C2)c(C)c1Cl` [Example 64, N,N-dibutyl-4-chloro-1-(4-(1-(2-(3,4-dichlorophenyl)acetyl)indolin-5-ylsulfonylcarbamoyl)-2-(1,2,3,4-tetrahydroisoquinoline-2-carbonyl)phenyl)-5-methyl-1H-pyrazole-3-carboxamide], for which the results for the IC50 in test [1] and in test [2] were 200 nM and 2450 nM, respectively.
On the same counts, the results for `CCCCN(CCCC)C(=O)c1nn(-c2ccc(C(=O)NS(=O)(=O)c3cc(Br)c4c(ccn4CC)c3)cc2C(=O)N2Cc3ccccc3C[C@H]2CO)c(C)c1Cl` [Example 208, 1-(4-(7-bromo-1-ethyl-1H-indol-5-ylsulfonylcarbamoyl)-2-((S)-3-(hydroxymethyl)-1,2,3,4-tetrahydroisoquinoline-2-carbonyl)phenyl)-N,N-dibutyl-4-chloro-5-methyl-1H-pyrazole-3-carboxamide] are 3.59 nM and 7.88 nM.
On the same counts, the results for `CCCCN(CCCC)c1ccc(Br)c(-c2ccc(C(=O)NS(=O)(=O)c3ccc4cccc(Cl)c4c3)cc2C(=O)N2CCc3ccccc3C2)n1` [Example 289, 4-(3-Bromo-6-(dibutylamino)pyridin-2-yl)-N-(8-chloronaphthalen-2-ylsulfonyl)-3-(1,2,3,4-tetrahydroisoquinoline-2-carbonyl)benzamide] are 10 nM and 60 nM.
